Measurements as given in patent publication US7524861B2, “Process for the preparation of a hydrate of an anthranilic acid derivative” (priority 2002, dated 2009).

Columns and labels:
Type in all cases: cell-based
2780AD = experiment: Potentiation of toxicity of various cytotoxic agents, potentiation index; settings: Taxol, compound 10 nM
Experimental: (§1) (b) Cells were cultured for four days with a titration of doxorubicin (0.263 nM-[…]) in the presence of a fixed concentration of each compound. Proliferation was quantified as described by Skehen et al, loc cit. The IC50 (concentration required to reduce proliferation to 50% of the untreated controls) for doxorubicin alone and with each compound were derived and used to calculate the potentiation index (PI):
(§2) The potentiation indices of a selection of compounds using a variety of cell lines and a variety of cytotoxics other than doxorubicin were measured following the protocol described above for doxorubicin, and the results are shown in Table D.

H69/LX4 = experiment: as above; settings: for Potentiaton Index at RMA Concentration 10 nM: compound 10 nM; for Potentiaton Index at RMA Concentration 30 nM: compound 30 nM
Experimental: as §1, §2

AR 1.0 cells = experiment: Potentiation of doxorubicin toxicity: proliferation assay, compound titrated against fixed doxorubicin (sulphorhodamine B); settings: Mus musculus, 96 h; with fixed doxorubicin (0.34 mm); four day incubation; read-out: Toxicity with Cytotoxic Agent (IC50 mM)
Experimental: The EMT6 mouse mammary carcinoma cell line and the MDR resistant subline AR 1.0 were cultured in RPMI 1640 medium containing 10% foetal calf serum and 2 mM glutamine at 37° C. in 5% CO2. Cells were passaged between 1 in 200 and 1 in 2000 in the case of the parental cell line and between 1 in 20 and 1 in 200 in the case of the MDR resistant subline, after trypsinisation (0.25% trypsin, 0.2 gl^−1, EDTA).
(a) Selected compounds of formula (I) were examined for their ability to potentiate the toxicity of doxorubicin in AR 1.0 cells. In initial proliferation assays compounds were titrated against a fixed concentration of doxorubicin ([…]) which alone is non-toxic to AR 1.0 cells. After a four day incubation with doxorubicin proliferation was measured using the colorimetric sulphorhodamine B assay (Skehan et al; J Natl. Cancer Inst. 82 pp 1107-1112 (1990)).

Row | SMILES | IC50 (AR 1.0 cells) [nM] | further results
1 | COc1cc2c(cc1OC)CN(CCc1ccc(NC(=O)c3sccc3NC(=O)c3cnc4ccccc4c3)cc1)CC2 [Compound 3, Quinoline-3-carboxylic acid (2-{4-[2-(6,7-dimethoxy-3,4-dihydro-1H-isoquinolin-2-yl)-ethyl]-phenylcarbamoyl}-thiophen-3-yl)-amide] | – | Potentiaton Index at RMA Concentration 10 nM (2780AD): 18; Potentiaton Index at RMA Concentration 10 nM (H69/LX4; Vincristine): 2; Potentiaton Index at RMA Concentration 30 nM (H69/LX4; Vincristine): 79
2 | COc1cc2c(cc1OC)CN(CCc1ccc(NC(=O)c3c(C)csc3NC(=O)c3cnc4ccccc4c3)cc1)CC2 [Compound 6, Quinoline-3-carboxylic acid (3-{4-[2-(6,7-dimethoxy-3,4-dihydro-1H-isoquinolin-2-yl)-ethyl]-phenylcarbamoyl}-4-methyl-thiophen-2-yl)-amide] | – | Potentiaton Index at RMA Concentration 10 nM (H69/LX4; Taxol): 1; Potentiaton Index at RMA Concentration 30 nM (H69/LX4; Taxol): 3; Potentiaton Index at RMA Concentration 50 nM (H69/LX4; Taxol, compound 50 nM): 9
3 | COc1ccc(CN(C)CCc2ccc(NC(=O)c3ccccc3NC(=O)c3cnc4ccccc4c3)cc2)cc1OC [Compound 7, Quinoline-3-carboxylic acid [2-(4-{2-[(3,4-dimethoxy-benzyl)-methyl-amino]-ethyl}-phenylcarbamoyl)-phenyl]-amide] | – | Potentiaton Index at RMA Concentration 10 nM (H69/LX4; Taxol): 2.2
4 | COc1cc2c(cc1OC)CN(CCNC(=O)c1ccccc1NC(=O)c1nccc3ccccc13)CC2 [Compound 27, Isoquinoline-1-carboxylic acid {2-[2-(6,7-dimethoxy-3,4-dihydro-1H-isoquinolin-2-yl)-ethylcarbamoyl]-phenyl}-amide] | 1000 | –
5 | COc1cc2c(cc1OC)CN(CCNC(=O)c1ccccc1NC(=O)c1ccc3ccccc3n1)CC2 [Compound 28, Quinoline-2-carboxylic acid {2-[2-(6,7-dimethoxy-3,4-dihydro-1H-isoquinolin-2-yl)-ethylcarbamoyl]-phenyl}-amide] | 550 | –
6 | COc1cc2c(cc1OC)CN(CCNC(=O)c1ccccc1NC(=O)c1cc3ccccc3cn1)CC2 [Compound 29, Isoquinoline-3-carboxylic acid {2-[2-(6,7-dimethoxy-3,4-dihydro-1H-isoquinolin-2-yl)-ethylcarbamoyl]-phenyl}-amide] | 300 | –
7 | COc1cc2c(cc1OC)CN(CCc1ccc(NC(=O)c3cc(F)ccc3NC(=O)c3cnc4ccccc4c3)cc1)CC2 [Compound 33, Quinoline-3-carboxylic acid (2-{4-[2-(6,7-dimethoxy-3,4-dihydro-1H-isoquinolin-2-yl)-ethyl]-phenylcarbamoyl}-4-fluoro-phenyl)-amide] | 5 | –
8 | COc1cc2c(cc1OC)CN(CCc1ccc(NC(=O)c3cc(OC)c(OC)cc3NC(=O)c3cnc4ccccc4c3)cc1)CC2 [Compound 34, Quinoline-3-carboxylic acid (2-{4-[2-(6,7-dimethoxy-3,4-dihydro-1H-isoquinolin-2-yl)-ethyl]-phenylcarbamoyl}-4,5-dimethoxy-phenyl)-amide] | 1.8 | –
9 | COc1cc2c(cc1OC)CN(CCc1ccc(NC(=O)c3cc4c(cc3NC(=O)c3cnc5ccccc5c3)OCO4)cc1)CC2 [Compound 35, Quinoline-3-carboxylic acid (6-{4-[2-(6,7-dimethoxy-3,4-dihydro-1H-isoquinolin-2-yl)-ethyl]-phenylcarbamoyl}-benzo[1,3]dioxol-5-yl)-amide] | 1.4 | –
10 | COc1cc2c(cc1OC)CN(CCc1ccc(NC(=O)c3ccc([N+](=O)[O-])cc3NC(=O)c3cnc4ccccc4c3)cc1)CC2 [Compound 36, Quinoline-3-carboxylic acid (2-{4-[2-(6,7-dimethoxy-3,4-dihydro-1H-isoquinolin-2-yl)-ethyl]-phenylcarbamoyl}-5-nitro-phenyl)-amide] | 3.8 | –
11 | COc1cc2c(cc1OC)CN(CCc1ccc(NC(=O)c3cc(C)ccc3NC(=O)c3cnc4ccccc4c3)cc1)CC2 [Compound 37, Quinoline-3-carboxylic acid (2-{4-[2-(6,7-dimethoxy-3,4-dihydro-1H-isoquinolin-2-yl)-ethyl]-phenylcarbamoyl}-4-methyl-phenyl)-amide] | 15 | –
12 | COc1cc2c(cc1OC)CN(CCc1ccc(NC(=O)c3ccc(C)cc3NC(=O)c3cnc4ccccc4c3)cc1)CC2 [Compound 38, Quinoline-3-carboxylic acid (2-{4-[2-(6,7-dimethoxy-3,4-dihydro-1H-isoquinolin-2-yl)-ethyl]-phenylcarbamoyl}-5-methyl-phenyl)-amide] | 5 | –
13 | COc1cc2c(cc1OC)CN(CCc1ccc(NC(=O)c3cc(Cl)ccc3NC(=O)c3cnc4ccccc4c3)cc1)CC2 [Compound 39, Quinoline-3-carboxylic acid (2-{4-[2-(6,7-dimethoxy-3,4-dihydro-1H-isoquinolin-2-yl)-ethyl]-phenylcarbamoyl}-4-chloro-phenyl)-amide] | 5 | –
14 | COc1cc2c(cc1OC)CN(CCc1ccc(NC(=O)c3ccc(Cl)cc3NC(=O)c3cnc4ccccc4c3)cc1)CC2 [Compound 40, Quinoline-3-carboxylic acid (2-{4-[2-(6,7-dimethoxy-3,4-dihydro-1H-isoquinolin-2-yl)-ethyl]-phenylcarbamoyl}-5-chloro-phenyl)-amide] | 40 | –
15 | COc1cc2c(cc1OC)CN(CCc1ccc(NC(=O)c3ccc(N)cc3NC(=O)c3cnc4ccccc4c3)cc1)CC2 [Compound 41, Quinoline-3-carboxylic acid (2-{4-[2-(6,7-dimethoxy-3,4-dihydro-1H-isoquinolin-2-yl)-ethyl]-phenylcarbamoyl}-5-amino-phenyl)-amide] | 4400 | –
16 | COc1cc2c(cc1OC)CN(CCc1ccc(NC(=O)c3ccccc3NC(=O)c3ccc4ccccc4n3)cc1)CC2 [Compound 42, Quinoline-2-carboxylic acid (2-{4-[2-(6,7-dimethoxy-3,4-dihydro-1H-isoquinolin-2-yl)-ethyl]-phenylcarbamoyl}-phenyl)-amide] | 70 | –
17 | COc1cc2c(cc1OC)CN(CCc1ccc(NC(=O)c3ccccc3NC(=O)c3cnc4c(c3)CCCC4)cc1)CC2 [Compound 43, 5,6,7,8-Tetrahydroquinoline-3-carboxylic acid (2-{4-[2-(6,7-dimethoxy-3,4-dihydro-1H-isoquinolin-2-yl)-ethyl]-phenylcarbamoyl}-phenyl)-amide] | 50 | –
18 | O=C(Nc1ccccc1C(=O)Nc1ccc(CCN2CCc3ccccc3C2)cc1)c1cnc2ccccc2c1 [Compound 44, Quinoline-3-carboxylic acid (2-{4-[2-(3,4-dihydro-1H-isoquinolin-2-yl)-ethyl]-phenylcarbamoyl}-phenyl)-amide] | 0.35 | –
19 | COc1cc2c(cc1OC)CN(Cc1ccc(NC(=O)c3ccccc3NC(=O)c3cnc4ccccc4c3)cc1)CC2 [Compound 45, Quinoline-3-carboxylic acid {2-[4-(6,7-dimethoxy-3,4-dihydro-1H-isoquinolin-2-ylmethyl)-phenylcarbamoyl]-phenyl}-amide] | 22 | –
